Reference: ChEMBL document CHEMBL1131870, “The inhibition of human cytomegalovirus (hCMV) protease by hydroxylamine derivatives” (Bioorg Med Chem Lett, 1999)

Target: T1, Capsid scaffolding protein (Human cytomegalovirus (strain AD169) (HHV-5) (Human herpesvirus 5), UniProt P16753)
T1 sequence (P16753 whole entry): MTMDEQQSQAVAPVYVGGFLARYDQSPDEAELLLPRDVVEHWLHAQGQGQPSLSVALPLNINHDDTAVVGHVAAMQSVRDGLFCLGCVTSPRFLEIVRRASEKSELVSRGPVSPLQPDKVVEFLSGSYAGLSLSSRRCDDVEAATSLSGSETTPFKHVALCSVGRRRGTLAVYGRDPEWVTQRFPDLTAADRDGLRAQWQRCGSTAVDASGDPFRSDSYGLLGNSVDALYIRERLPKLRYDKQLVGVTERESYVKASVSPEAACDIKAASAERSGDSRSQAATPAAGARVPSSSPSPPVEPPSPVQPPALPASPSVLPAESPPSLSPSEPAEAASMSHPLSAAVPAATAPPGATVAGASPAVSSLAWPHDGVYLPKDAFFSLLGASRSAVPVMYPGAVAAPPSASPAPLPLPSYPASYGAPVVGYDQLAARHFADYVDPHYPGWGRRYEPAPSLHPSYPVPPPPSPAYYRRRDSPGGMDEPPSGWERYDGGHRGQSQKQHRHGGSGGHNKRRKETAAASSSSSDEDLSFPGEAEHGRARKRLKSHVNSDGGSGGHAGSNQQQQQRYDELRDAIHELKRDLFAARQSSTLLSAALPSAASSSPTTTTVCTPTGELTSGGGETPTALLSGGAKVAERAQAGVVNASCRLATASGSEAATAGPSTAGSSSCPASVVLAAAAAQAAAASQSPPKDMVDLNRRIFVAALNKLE
Experiment: Inhibitory activity against Human Cytomegalovirus (hCMV) protease
Set-up: species or system Human betaherpesvirus 5

Cc1csc2nc(Cc3ccc(C(=O)c4ccccc4)cc3)oc(=O)c12
IC50: 800 nM

CONc1cccc(C(=O)Nc2cccc(Cc3nc4scc(C)c4c(=O)o3)c2)c1
IC50: 2200 nM

Cc1csc2nc(Cc3ccc(C(=O)c4cccc(/N=[N+](\[O-])c5cccc(C(=O)c6ccc(Cc7nc8scc(C)c8c(=O)o7)cc6)c5)c4)cc3)oc(=O)c12
IC50: > 33000 nM

Cc1ccc(C(=O)c2cccc(NO)c2)cc1
IC50: 3700 nM

CC(=O)N(O)c1cccc(C(=O)c2ccc(Cc3nc4scc(C)c4c(=O)o3)cc2)c1
IC50: 1100 nM

CC(=O)c1cccc(NO)c1
IC50: 11000 nM

Cc1csc2nc(Cc3cccc(NC(=O)c4ccccc4)c3)oc(=O)c12
IC50: 1500 nM

CC(=O)ON(C(C)=O)c1cccc(C(=O)c2ccc(Cc3nc4scc(C)c4c(=O)o3)cc2)c1
IC50: 1400 nM

Cc1csc2nc(Cc3ccc(C(=O)c4cccc(N=O)c4)cc3)oc(=O)c12
IC50: 55 nM

Cc1csc2nc(Cc3ccc(C(=O)c4ccc(NO)cc4)cc3)oc(=O)c12
IC50: 14 nM

Cc1csc2nc(Cc3ccc(C(=O)c4ccc(CO)cc4)cc3)oc(=O)c12
IC50: 940 nM

Cc1csc2nc(Cc3cccc(NC(=O)c4ccc(NN)cc4)c3)oc(=O)c12
IC50: 2400 nM

Cc1csc2nc(Cc3ccc(C(=O)c4cccc(CO)c4)cc3)oc(=O)c12
IC50: 1100 nM

Cc1csc2nc(Cc3cccc(NC(=O)c4ccc(NO)cc4)c3)oc(=O)c12
IC50: 61 nM

Cc1csc2nc(Cc3cccc(NC(=O)c4cccc(NN)c4)c3)oc(=O)c12
IC50: 3800 nM

Cc1csc2nc(Cc3ccc(C(=O)c4cccc(NO)c4)cc3)[nH]c(=O)c12
IC50: 2000 nM

ONc1ccccc1
IC50: 9000 nM

Cc1csc2nc(Cc3cccc(NC(=O)c4cccc(NO)c4)c3)oc(=O)c12
IC50: 45 nM

Cc1csc2nc(Cc3ccc(C(=O)c4cccc([N+](=O)[O-])c4)cc3)oc(=O)c12
IC50: 3500 nM

Cc1csc2nc(Cc3ccc(C(=O)c4cccc(N)c4)cc3)oc(=O)c12
IC50: 1000 nM

Cc1csc2nc(Cc3ccc(C(=O)c4cccc(NO)c4)cc3)oc(=O)c12
IC50: 19 nM

Cc1csc2nc(Cc3ccc(C(=O)c4ccccc4)cc3)[nH]c(=O)c12
IC50: > 33000 nM

NO [HYDROXYLAMMONIUM CHLORIDE]
IC50: > 33000 nM
